In US20240279278A1, “NMU RECEPTOR 2 AGONISTS” (Boehringer Ingelheim International GmbH, priority 2023, published 2024):
Starred links: 1 amine or outer side, 2 acyl side, 3 side chain; linkers in the order of their positions; H or OH if unused. Non-standard residues stand in square brackets, D forms with d. Residues, ends and D or L forms follow the SMILES beside them. *: point of attachment. Pipz(1-CH2CO,4-CH2CH2NH) = O=C(CN1CCN(CCN[*:1])CC1)[*:2]; C18 diacid = O=C(O)CCCCCCCCCCCCCCCCC(=O)*; γGlu = O=C(O)[C@H](CCC(=O)[*:2])N[*:1]; 2Pal = N[C@@H](Cc1ccccn1)C(=O)O; 4Pal = N[C@@H](Cc1ccncc1)C(=O)O; NMeL = CN[C@@H](CC(C)C)C(=O)O; NMeA = CN[C@@H](C)C(=O)O; Nle = CCCC[C@H](N)C(=O)O; Sar = CNCC(=O)O

Legend:
Type in all cases: cell-based
[1] = molecular target: T1, human NMUR2 receptor (Homo sapiens, UniProt Q9GZQ4); assay: IP1 Gq HTRF assay, activation of human NMUR2 in human plasma; design: expressed in transfected cells; host or cells: CHO-K1; settings: CHO-K1 cells expressing human NMUR2, 100% human plasma; read-out: EC50 (hNMUR2) human plasma
T1 sequence (Q9GZQ4 whole entry): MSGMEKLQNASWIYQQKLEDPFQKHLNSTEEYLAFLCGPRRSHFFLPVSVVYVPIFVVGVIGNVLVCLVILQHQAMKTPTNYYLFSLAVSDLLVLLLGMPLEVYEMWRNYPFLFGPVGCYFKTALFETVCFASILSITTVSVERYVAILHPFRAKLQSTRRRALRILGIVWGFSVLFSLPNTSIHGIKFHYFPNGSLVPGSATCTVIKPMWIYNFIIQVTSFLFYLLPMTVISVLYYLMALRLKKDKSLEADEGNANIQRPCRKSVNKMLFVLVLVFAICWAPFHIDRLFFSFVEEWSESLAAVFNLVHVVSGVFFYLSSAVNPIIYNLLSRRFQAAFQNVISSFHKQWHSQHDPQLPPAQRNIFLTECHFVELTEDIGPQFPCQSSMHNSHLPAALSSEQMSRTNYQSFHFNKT
In short: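 CHO-K1 cells stably expressing human NMUR2 exposed to peptide agonists (8-point dose-response) in 100% human plasma with 50 mM LiCl, 1% DMSO, for 1 h at 37° C. IP1 accumulation read by HTRF competition (665/620 nm ratio). EC50 from 4-parameter sigmoidal fit.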

[2] = molecular target: T2, human NMUR1 receptor (Homo sapiens, UniProt Q9HB89); assay: IP1 Gq HTRF assay, activation of human NMUR1 in buffer; settings: CHO-K1 cells expressing human NMUR1, stimulation buffer with 0.1% BSA; read-out: EC50 (hNMUR1) buffer
T2 construct: expressed in transfected cells; host or cells: CHO-K1
T2 sequence (Q9HB89 1-426): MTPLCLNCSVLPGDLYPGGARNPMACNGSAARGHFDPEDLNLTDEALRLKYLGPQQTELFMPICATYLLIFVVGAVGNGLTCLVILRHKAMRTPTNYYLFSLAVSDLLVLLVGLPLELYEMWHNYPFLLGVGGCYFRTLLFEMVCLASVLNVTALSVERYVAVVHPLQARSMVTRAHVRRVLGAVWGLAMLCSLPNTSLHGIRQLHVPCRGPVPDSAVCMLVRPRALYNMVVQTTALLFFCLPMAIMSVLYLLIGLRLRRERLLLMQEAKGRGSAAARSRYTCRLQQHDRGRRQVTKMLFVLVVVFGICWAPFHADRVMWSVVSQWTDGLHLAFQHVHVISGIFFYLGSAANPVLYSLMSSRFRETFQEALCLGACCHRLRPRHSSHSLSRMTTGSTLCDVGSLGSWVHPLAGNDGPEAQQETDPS
In short: (§1)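 CHO-K1 cells stably expressing human NMUR1 or NMUR2, seeded 24 h before assay, stimulated with peptide agonists (8-point dose-response, 1% DMSO final) in HEPES/HBSS buffer with 50 mM LiCl and 0.1% BSA, pH 7.4, 1 h at 37 °C. IP1 accumulation read by HTRF competition (665/620 nm); EC50 from 4-parameter sigmoidal fit.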

[3] = molecular target: T1, human NMUR2 receptor; assay: IP1 Gq HTRF assay, activation of human NMUR2 in buffer; design: expressed in transfected cells; host or cells: CHO-K1; settings: CHO-K1 cells expressing human NMUR2, stimulation buffer with 0.1% BSA; read-out: EC50 (hNMUR2) buffer
In short: as §1

Row | SMILES | EC50 [1] [nM] | EC50 [2] [nM] | EC50 [3] [nM]
1 | CCCC[C@H](NC(=O)[C@H](CC(C)C)N(C)C(=O)[C@H](Cc1ccccc1)NC(=O)[C@H](Cc1ccc(O)cc1)NC(=O)CN1CCN(CCNC(=O)CN(C)C(=O)CN(C)C(=O)CN(C)C(=O)CN(C)C(=O)CN(C)C(=O)CN(C)C(=O)CN(C)C(=O)CN(C)C(=O)CN(C)C(=O)CN(C)C(=O)CN(C)C(=O)CN(C)C(=O)CC[C@H](NC(=O)CC[C@H](NC(=O)CC[C@H](NC(=O)CC[C@H](NC(=O)CCCCCCCCCCCCCCCCCCC(=O)O)C(=O)O)C(=O)O)C(=O)O)C(=O)O)CC1)C(=O)N[C@@H](CCCNC(=N)N)C(=O)N1CCC[C@H]1C(=O)N[C@@H](CCCNC(=N)N)C(=O)NCC(N)=O [Compound 39, C20DA-gGlu4-Sar12-AEPipAc-Tyr-Phe-NMeLeu-Nle-Arg-Pro-Arg-Gly-NH2] | 10.4 | 190 | 2.5
2 | CCCC[C@H](NC(=O)[C@H](CC(C)C)N(C)C(=O)[C@H](Cc1ccccc1)NC(=O)[C@H](Cc1ccc(O)cc1)NC(=O)CN1CCN(CCNC(=O)CN(C)C(=O)CN(C)C(=O)CN(C)C(=O)CN(C)C(=O)CN(C)C(=O)CN(C)C(=O)CN(C)C(=O)CN(C)C(=O)CN(C)C(=O)CC[C@H](NC(=O)CC[C@H](NC(=O)CCCCCCCCCCCCCCCCC(=O)O)C(=O)O)C(=O)O)CC1)C(=O)N[C@@H](CCCN)C(=O)N(C)[C@@H](C)C(=O)N[C@@H](CCCNC(=N)N)C(=O)NCC(N)=O [Compound 44, C18DA-gGlu2-Sar9-AEPipAc-Tyr-Phe-NMeLeu-Nle-Orn-NMeAla-Arg-Gly-NH2] (HELM PEPTIDE1{[O=C(O)CCCCCCCCCCCCCCCCC(=O)[*:2]].[gGlu].[gGlu].[Sar].[Sar].[Sar].[Sar].[Sar].[Sar].[Sar].[Sar].[Sar].[O=C(CN1CCN(CCN[*:1])CC1)[*:2]].Y.F.[meL].[Nle].[Orn].[meA].R.G.[am]}$$$$V2.0) | 20.5 | > 1000 | 2.2
3 | CCCC[C@H](NC(=O)[C@H](CC(C)C)N(C)C(=O)[C@H](Cc1ccccc1)NC(=O)[C@H](Cc1ccc(O)cc1)NC(=O)CN1CCN(CCNC(=O)CN(C)C(=O)CN(C)C(=O)CN(C)C(=O)CN(C)C(=O)CN(C)C(=O)CN(C)C(=O)CN(C)C(=O)CN(C)C(=O)CN(C)C(=O)CN(C)C(=O)CN(C)C(=O)CN(C)C(=O)CN(C)C(=O)CN(C)C(=O)CN(C)C(=O)CC[C@H](NC(=O)CC[C@H](NC(=O)CC[C@H](NC(=O)CCCCCCCCCCCCCCCCC(=O)O)C(=O)O)C(=O)O)C(=O)O)CC1)C(=O)N[C@@H](CCCCN)C(=O)N1CCC[C@H]1C(=O)N[C@@H](CCCNC(=N)N)C(=O)NCC(N)=O [Compound 46, C18DA-gGlu3-Sar15-AEPipAc-Tyr-Phe-NMeLeu-Nle-Lys-Pro-Arg-Gly-NH2] (HELM PEPTIDE1{[O=C(O)CCCCCCCCCCCCCCCCC(=O)[*:2]].[gGlu].[gGlu].[gGlu].[Sar].[Sar].[Sar].[Sar].[Sar].[Sar].[Sar].[Sar].[Sar].[Sar].[Sar].[Sar].[Sar].[Sar].[Sar].[O=C(CN1CCN(CCN[*:1])CC1)[*:2]].Y.F.[meL].[Nle].K.P.R.G.[am]}$$$$V2.0) | 26.2 | > 1000 | 13
4 | CCCC[C@H](NC(=O)[C@H](CC(C)C)N(C)C(=O)[C@H](Cc1ccccc1)NC(=O)[C@H](Cc1ccc(O)cc1)NC(=O)CN1CCN(CCNC(=O)CN(C)C(=O)CN(C)C(=O)CN(C)C(=O)CN(C)C(=O)CN(C)C(=O)CN(C)C(=O)CN(C)C(=O)CN(C)C(=O)CN(C)C(=O)CN(C)C(=O)CN(C)C(=O)CN(C)C(=O)CN(C)C(=O)CN(C)C(=O)CN(C)C(=O)CC[C@H](NC(=O)CC[C@H](NC(=O)CC[C@H](NC(=O)CCCCCCCCCCCCCCCCC(=O)O)C(=O)O)C(=O)O)C(=O)O)CC1)C(=O)N[C@@H](CCCCN)C(=O)N(C)[C@@H](C)C(=O)N[C@@H](CCCNC(=N)N)C(=O)NCC(N)=O [Compound 47, C18DA-gGlu3-Sar15-AEPipAc-Tyr-Phe-NMeLeu-Nle-Lys-NMeAla-Arg-Gly-NH2] (HELM PEPTIDE1{[O=C(O)CCCCCCCCCCCCCCCCC(=O)[*:2]].[gGlu].[gGlu].[gGlu].[Sar].[Sar].[Sar].[Sar].[Sar].[Sar].[Sar].[Sar].[Sar].[Sar].[Sar].[Sar].[Sar].[Sar].[Sar].[O=C(CN1CCN(CCN[*:1])CC1)[*:2]].Y.F.[meL].[Nle].K.[meA].R.G.[am]}$$$$V2.0) | 32.6 | > 1000 | 9.3

Further lines, results first:

Row | EC50 [1] [nM] | EC50 [2] [nM] | EC50 [3] [nM] | SMILES
5 | 12.2 | 1300 | 2 | CCCC[C@H](NC(=O)[C@H](CC(C)C)N(C)C(=O)[C@H](Cc1ccccc1)NC(=O)[C@H](Cc1ccc(O)cc1)NC(=O)CN1CCN(CCNC(=O)CN(C)C(=O)CN(C)C(=O)CN(C)C(=O)CN(C)C(=O)CN(C)C(=O)CN(C)C(=O)CN(C)C(=O)CN(C)C(=O)CN(C)C(=O)CN(C)C(=O)CN(C)C(=O)CN(C)C(=O)CC[C@H](NC(=O)CC[C@H](NC(=O)CC[C@H](NC(=O)CC[C@H](NC(=O)CCCCCCCCCCCCCCCCC(=O)O)C(=O)O)C(=O)O)C(=O)O)C(=O)O)CC1)C(=O)N[C@@H](CCN)C(=O)N1CCC[C@H]1C(=O)N[C@@H](CCCNC(=N)N)C(=O)NCC(N)=O [Compound 41, C18DA-gGlu4-Sar12-AEPipAc-Tyr-Phe-NMeLeu-Nle-Dbu-Pro-Arg-Gly-NH2]
6 | 129 | > 1000 | 30 | CCCC[C@H](NC(=O)[C@H](CC(C)C)N(C)C(=O)[C@H](Cc1ccccc1)NC(=O)[C@H](Cc1ccc(O)cc1)NC(=O)CN1CCN(CCNC(=O)CN(C)C(=O)CN(C)C(=O)CN(C)C(=O)CN(C)C(=O)CN(C)C(=O)CN(C)C(=O)CN(C)C(=O)CN(C)C(=O)CN(C)C(=O)CN(C)C(=O)CN(C)C(=O)CN(C)C(=O)CN(C)C(=O)CN(C)C(=O)CN(C)C(=O)CC[C@H](NC(=O)CC[C@H](NC(=O)CC[C@H](NC(=O)CCCCCCCCCCCCCCCCC(=O)O)C(=O)O)C(=O)O)C(=O)O)CC1)C(=O)N[C@@H](Cc1ccncc1)C(=O)N1CCC[C@H]1C(=O)N[C@@H](CCCNC(=N)N)C(=O)NCC(N)=O [Compound 45, C18DA-gGlu3-Sar15-AEPipAc-Tyr-Phe-NMeLeu-Nle-4Pal-Pro-Arg-Gly-NH2] ({C18 diacid-γGlu-γGlu-γGlu}-[Sar][Sar][Sar][Sar][Sar][Sar][Sar][Sar][Sar][Sar][Sar][Sar][Sar][Sar][Sar][Pipz(1-CH2CO,4-CH2CH2NH)]YF[NMeL][Nle][4Pal]PRG-NH2)
7 | > 1000 | > 1000 | > 1000 | CCCC[C@H](NC(=O)[C@H](CC(C)C)N(C)C(=O)[C@H](Cc1ccccc1)NC(=O)[C@H](Cc1ccc(O)cc1)NC(=O)CN1CCN(CCNC(=O)CN(C)C(=O)CN(C)C(=O)CN(C)C(=O)CN(C)C(=O)CN(C)C(=O)CN(C)C(=O)CN(C)C(=O)CN(C)C(=O)CN(C)C(=O)CN(C)C(=O)CN(C)C(=O)CN(C)C(=O)CN(C)C(=O)CN(C)C(=O)CN(C)C(=O)CC[C@H](NC(=O)CC[C@H](NC(=O)CC[C@H](NC(=O)CCCCCCCCCCCCCCCCC(=O)O)C(=O)O)C(=O)O)C(=O)O)CC1)C(=O)N[C@@H](Cc1ccccn1)C(=O)N(C)[C@@H](C)C(=O)N[C@@H](CCCNC(=N)N)C(=O)NCC(N)=O [Compound 48, C18DA-gGlu3-Sar15-AEPipAc-Tyr-Phe-NMeLeu-Nle-2Pal-NMeAla-Arg-Gly-NH2] ({C18 diacid-γGlu-γGlu-γGlu}-[Sar][Sar][Sar][Sar][Sar][Sar][Sar][Sar][Sar][Sar][Sar][Sar][Sar][Sar][Sar][Pipz(1-CH2CO,4-CH2CH2NH)]YF[NMeL][Nle][2Pal][NMeA]RG-NH2)
